Drawing on US10821115B2, “Compounds that inhibit Mcl-1 protein” (priority 2017, dated 2020), this text covers IC50 for 16 molecules.

Molecules are shown by their SMILES. Read-outs that look alike come from different tables or passages of the source.

What is called IC50 is the concentration needed to halve the response being measured.

Assay [1] has as its target recombinant human Mcl-1 (residues 171-327) / Bim interaction (Homo sapiens (Human), UniProt Q07820). Nature of the assay: biochemical. The assay is classed as binding. To be noted: read-out: Mcl-1 HTRF IC50. For orientation: In TR-FRET formats the signal depends on donor and acceptor labels being close together.
In assay [2] the test system is human multiple myeloma cell line, OPM-2. Nature of the assay: Cell viability assay (OPM-2 10 FBS), CellTiter-Glo. The assay is classed as cell-based. The essentials:
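Steps: plate cells at 3000/well in 10% FBS growth medium, add serially diluted compound, incubate 16 h at 37 °C with 5% CO2, add detection reagent and read luminescence after 25 min. A 4-parameter logistic model gives IC50.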
A general note: ATP-based viability assays read luminescence as a measure of living cells.

Setting [3] is: TR-FRET, Mcl-1(171-327) / biotin-Bim (51-76).
The mark [4] stands for this setting: Homo sapiens, OPM-2, 16 h, read-out: OPM-2 10% FBS IC50 IP, OPM-2 cells, 10% FBS, 16 h, CellTiter-Glo.
Where [5] appears, read: read-out: OPM-2 10% FBS IC50 IP, OPM-2 cells, 10% FBS, 16 h, CellTiter-Glo.

recombinant human Mcl-1 (residues 171-327) / Bim interaction, sequence (Q07820 171-327): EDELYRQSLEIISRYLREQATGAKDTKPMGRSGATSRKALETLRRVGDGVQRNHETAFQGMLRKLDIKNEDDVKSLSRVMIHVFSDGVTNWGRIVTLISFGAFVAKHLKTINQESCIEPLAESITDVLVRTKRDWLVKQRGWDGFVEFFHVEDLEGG

With `C[C@@H]1[C@@H](C)CCC[C@](CO)(NC(=O)c2ccccc2)[C@@H]2CC[C@H]2CN2C[C@@]3(CCCc4cc(Cl)ccc43)COc3ccc(cc32)C(=O)NS1(=O)=O` [Example 100256, N-((1S,3′R,6′R,7′S,11′S,12′R)-6-chloro-7′-(hydroxymethyl)-11′,12′-dimethyl-13′,13′-dioxido-15′-oxo-3,4-dihydro-2H-spiro[naphthalene-1,22′-[20]oxa[13]thia[1,14]diazatetracyclo [14.7.2.0~3,6~.0~19,24~]pentacosa[16,18,24]trien]-7′-yl)benzamide], the half-inhibitory concentration (IC50) in assay [1] (setting [3]) was 5.04 nM; in assay [2] (setting [4]), 1200 nM.
As for `CC[C@@H]1CC/C=C/[C@@](OC)(C2SCCCS2)[C@@H]2CC[C@H]2CN2C[C@@]3(CCCc4cc(Cl)ccc43)COc3ccc(cc32)C(=O)NS1(=O)=O` (single isomer, unassigned) [Example 100579], the IC50 stood at 0.214 nM in assay [1] (setting [3]) and 757 nM in assay [2] (setting [4]).
The like results for `C[C@@H]1[C@@H](C)C/C=C/[C@@](O)(CS(C)(=O)=O)[C@@H]2CC[C@H]2CN2C[C@@]3(CCCc4cc(Cl)ccc43)COc3ccc(cc32)C(=O)NS1(=O)=O` [Example 100072, (1S,3′R,6′R,7′S,8′E,11′S,12′R)-6-chloro-7′-hydroxy-11′,12′-dimethyl-7′-((methylsulfonyl)methyl)-3,4-dihydro-2H,15′H-spiro[naphthalene-1,22′-[20]oxa[13]thia[1,14]diazatetracyclo [14.7.2.0~3,6~.0~19,24~]pentacosa[8,16,18,24]tetraen]-15′-one 13′,13′-dioxide] were, in that order, 0.451 nM and 1720 nM.
In the case of `CC#C[C@]1(OC)/C=C/C[C@H](C)[C@@H](C)S(=O)(=O)NC(=O)c2ccc3c(c2)N(C[C@@H]2CC[C@H]21)C[C@@]1(CCCc2cc(Cl)ccc21)CO3` [Example 100501, (1S,3′R,6′R,7′S,8′E,11′S,12′R)-6-chloro-7′-methoxy-11′,12′-dimethyl-7′-(1-propyn-1-yl)-3,4-dihydro-2H,15′H-spiro[naphthalene-1,22′-[20]oxa[13]thia[1,14]diazatetracyclo [14.7.2.0~3,6~.0~19,24~]pentacosa[8,16,18,24]tetraen]-15′-one 13′,13′-dioxide], the IC50 in assay [1] (setting [3]) stood at 0.09 nM; in assay [2] (setting [4]) it was 518 nM.
As for `Cc1cc(C[C@@]2(O)/C=C/C[C@H](C)[C@@H](C)S(=O)(=O)NC(=O)c3ccc4c(c3)N(C[C@@H]3CC[C@H]32)C[C@@]2(CCCc3cc(Cl)ccc32)CO4)no1` [Example 100540, (1S,3′R,6′R,7′R,8′E,11′S,12′R)-6-chloro-7′-hydroxy-11′,12′-dimethyl-7′-((5-methyl-1,2-oxazol-3-yl)methyl)-3,4-dihydro-2H,15′H-spiro[naphthalene-1,22′-[20]oxa[13]thia[1,14]diazatetracyclo [14.7.2.0~3,6~.0~19,24~]pentacosa[8,16,18,24]tetraen]-15′-one 13′,13′-dioxide], the IC50 in assay [1] (setting [3]) turned out to be 0.275 nM; in assay [2] (setting [4]) it was 320 nM.
As to `C[C@@H]1[C@@H](C)CCC[C@@](O)(CCN2CCOCC2)[C@@H]2CC[C@H]2CN2C[C@@]3(CCCc4cc(Cl)ccc43)COc3ccc(cc32)C(=O)NS1(=O)=O` [Example 100095, (1S,3′R,6′R,7′R,11′S,12′R)-6-chloro-7′-hydroxy-11′,12′-dimethyl-7′-(2-(4-morpholinyl)ethyl)-3,4-dihydro-2H,15′H-spiro[naphthalene-1,22′-[20]oxa[13]thia[1,14]diazatetracyclo [14.7.2.0~3,6~.0~19,24~]pentacosa[16,18,24]trien]-15′-one 13′,13′-dioxide], the 50% inhibitory concentration (IC50) is 0.148 nM in assay [1] (setting [3]) and 113 nM in assay [2] (setting [5]).
For the molecule `COCC(C)(C)N1CCN(C[C@@]2(OC)/C=C/C[C@H](C)[C@@H](C)S(=O)(=O)NC(=O)c3ccc4c(c3)N(C[C@@H]3CC[C@H]32)C[C@@]2(CCCc3cc(Cl)ccc32)CO4)CC1` [Example 333, (1S,3′R,6′R,7′R,8′E,11′S,12′R)-6-chloro-7′-methoxy-7′-((4-(2-methoxy-1,1-dimethylethyl)-1-piperazinyl)methyl)-11′,12′-dimethyl-3,4-dihydro-2H,15′H-spiro[naphthalene-1,22′-[20]oxa[13]thia[1,14]diazatetracyclo [14.7.2.0~3,6~.0~19,24~]pentacosa[8,16,18,24]tetraen]-15′-one 13′,13′-dioxide], the 50% inhibitory concentration (IC50) was found to be 0.088 nM in assay [1] (0.1 nM Mcl-1(171-327), 0.05 nM biotin-Bim (51-76)) and 82 nM in assay [2] (Homo sapiens, OPM-2, 16 h, read-out: OPM-2 10% FBS IC50 IP, OPM-2 cells, 10% FBS, 16 h incubation).
As for `CC[C@@H]1CCCC[C@](O)(COC)[C@@H]2CC[C@H]2CN2C[C@@]3(CCCc4cc(Cl)ccc43)COc3ccc(cc32)C(=O)NS1(=O)=O` [Example 100040, (1S,3′R,6′R,7′R,12′R)-6-chloro-12′-ethyl-7′-hydroxy-7′-(methoxymethyl)-3,4-dihydro-2H,15′H-spiro[naphthalene-1,22′-[20]oxa[13]thia[1,14]diazatetracyclo [14.7.2.0~3,6~.0~19,24~]pentacosa[16,18,24]trien]-15′-one 13′,13′-dioxide], the values for the concentration for half-maximal inhibition (IC50) in assay [1] (setting [3]) and in assay [2] (setting [4]) were 2.75 nM and 4950 nM, respectively.
`C[C@@H]1[C@@H](C)CCC[C@](O)(CC(=O)N(C)C(C)(C)C)[C@@H]2CC[C@H]2CN2C[C@@]3(CCCc4cc(Cl)ccc43)COc3ccc(cc32)C(=O)NS1(=O)=O` (single isomer, unassigned) [Example 100142]: the values for the IC50 in assay [1] (setting [3]) and in assay [2] (setting [5]) were 0.717 nM and 663 nM, respectively.
On to `C[C@@H]1[C@@H](C)C/C=C/[C@](O)(C(F)(F)C(=O)N(C)C)[C@@H]2CC[C@H]2CN2C[C@@]3(CCCc4cc(Cl)ccc43)COc3ccc(cc32)C(=O)NS1(=O)=O` [Example 100413, 2-((1S,3′R,6′R,7′R,8′E,11′S,12′R)-6-chloro-7′-hydroxy-11′,12′-dimethyl-13′,13′-dioxido-15′-oxo-3,4-dihydro-2H-spiro[naphthalene-1,22′-[20]oxa[13]thia[1,14]diazatetracyclo [14.7.2.0~3,6~.0~19,24~]pentacosa[8,16,18,24]tetraen]-7′-yl)-2,2-difluoro-N,N-dimethylacetamide], for which the IC50 is 0.228 nM in assay [1] (setting [3]) and 556 nM in assay [2] (setting [4]).
Consider `C[C@@H]1[C@@H](C)C/C=C/[C@](O)(COCCN2CCOCC2)[C@@H]2CC[C@H]2CN2C[C@@]3(CCCc4cc(Cl)ccc43)COc3ccc(cc32)C(=O)NS1(=O)=O` [Example 100356, (1S,3′R,6′R,7′R,8′E,11′S,12′R)-6-chloro-7′-hydroxy-11′,12′-dimethyl-7′-((2-(4-morpholinyl)ethoxy)methyl)-3,4-dihydro-2H,15′H-spiro[naphthalene-1,22′-[20]oxa[13]thia[1,14]diazatetracyclo [14.7.2.0~3,6~.0~19,24~]pentacosa[8,16,18,24]tetraen]-15′-one 13′,13′-dioxide], for which the concentration for half-maximal inhibition (IC50) in assay [1] (setting [3]) turned out to be 0.084 nM; in assay [2] (setting [4]) it was 71 nM.
The like results for `CC[C@@H]1CC/C=C/[C@](COCCN2CCOCC2)(OC)[C@@H]2CC[C@H]2CN2C[C@@]3(CCCc4cc(Cl)ccc43)COc3ccc(cc32)C(=O)NS1(=O)=O` (single isomer, unassigned) [Example 100597] were, in that order, 0.263 nM and 577 nM.
The like results for `C[C@@H]1[C@@H](C)C/C=C/[C@](C)(OCC2CCOCC2)[C@@H]2CC[C@H]2CN2C[C@@]3(CCCc4cc(Cl)ccc43)COc3ccc(cc32)C(=O)NS1(=O)=O` [Example 100477, (1S,3′R,6′R,7′S,8′E,11′S,12′R)-6-chloro-7′,11′,12′-trimethyl-7′-(tetrahydro-2H-pyran-4-ylmethoxy)-3,4-dihydro-2H,15′H-spiro[naphthalene-1,22′-[20]oxa[13]thia[1,14]diazatetracyclo [14.7.2.0~3,6~.0~19,24~]pentacosa[8,16,18,24]tetraen]-15′-one 13′,13′-dioxide] were, in that order, 0.313 nM and 159 nM.
Consider `C[C@@H]1[C@@H](C)C/C=C/[C@](O)(c2nc(CO)nn2C)[C@@H]2CC[C@H]2CN2C[C@@]3(CCCc4cc(Cl)ccc43)COc3ccc(cc32)C(=O)NS1(=O)=O` [Example 100201, (1S,3′R,6′R,7′R,8′E,11′S,12′R)-6-chloro-7′-hydroxy-7′-(3-(hydroxymethyl)-1-methyl-1H-1,2,4-triazol-5-yl)-11′,12′-dimethyl-3,4-dihydro-2H,15′H-spiro[naphthalene-1,22′-[20]oxa[13]thia[1,14]diazatetracyclo [14.7.2.0~3,6~.0~19,24~]pentacosa[8,16,18,24]tetraen]-15′-one 13′,13′-dioxide], for which the IC50 was determined as 0.086 nM in assay [1] (setting [3]) and 307 nM in assay [2] (setting [4]).
In the case of `CO[C@@]1(CS(=O)(=O)C(C)C)/C=C/C[C@H](C)[C@@H](C)S(=O)(=O)NC(=O)c2ccc3c(c2)N(C[C@@H]2CC[C@H]21)C[C@@]1(CCCc2cc(Cl)ccc21)CO3` (stereo in doubt) [Example 100315, (1S,3′R,6′R,7′S,8′E,11′S,12′R)-6-chloro-7′-methoxy-11′,12′-dimethyl-7′-((2-propanylsulfonyl)methyl)-3,4-dihydro-2H,15′H-spiro[naphthalene-1,22′-[20]oxa[13]thia[1,14]diazatetracyclo [147.2.0~3,6~.0~19,24~]pentacosa[8,16,18,24]tetraen]-15′-one 13′,13′-dioxide], the IC50 in assay [1] (setting [3]) is 0.2 nM; in assay [2] (setting [5]) it was 153 nM.
In the case of `COC[C@]1(OC)/C=C/C[C@H](C)[C@@H](C)S(=O)(=O)NC(=O)c2ccc3c(c2)N(C[C@@H]2CC[C@H]21)C[C@@]1(CCCc2cc(Cl)ccc21)CO3` [Example 100401, (1S,3′R,6′R,7′S,8′E,11′S,12′R)-6-chloro-7′-methoxy-7′-(methoxymethyl)-11′,12′-dimethyl-3,4-dihydro-2H,15′H-spiro[naphthalene-1,22′-[20]oxa[13]thia[1,14]diazatetracyclo [14.7.2.0~3,6~.0~19,24~]pentacosa[8,16,18,24]tetraen]-15′-one 13′,13′-dioxide], the IC50 in assay [1] (setting [3]) came out at 1.8 nM; in assay [2] (setting [4]), 8390 nM.
